From ChEMBL document CHEMBL3351341, “Discovery of a potent and selective EGFR inhibitor (AZD9291) of both sensitizing and T790M resistance mutations that spares the wild type form of the receptor” (J Med Chem, 2014)
pIC50: −log10 of the molar value. Each block holds one molecule with its values, some of them ahead of it.

Columns and labels:
Mus musculus [1] = test: Inhibition of EGFR L858R/[…] double mutant phosphorylation in human NCI-H1975 cells xenografted in SCID mouse at 10 mg/kg, po measured 16 hrs post dose; type: functional; details: NCI-H1975, 16 h
Insulin receptor [2] = molecular target: T1, Insulin receptor (Homo sapiens, UniProt P06213); test: Inhibition of INSR (unknown origin) at 1 uM relative to control
T1 sequence (P06213 28-758 limits assumed): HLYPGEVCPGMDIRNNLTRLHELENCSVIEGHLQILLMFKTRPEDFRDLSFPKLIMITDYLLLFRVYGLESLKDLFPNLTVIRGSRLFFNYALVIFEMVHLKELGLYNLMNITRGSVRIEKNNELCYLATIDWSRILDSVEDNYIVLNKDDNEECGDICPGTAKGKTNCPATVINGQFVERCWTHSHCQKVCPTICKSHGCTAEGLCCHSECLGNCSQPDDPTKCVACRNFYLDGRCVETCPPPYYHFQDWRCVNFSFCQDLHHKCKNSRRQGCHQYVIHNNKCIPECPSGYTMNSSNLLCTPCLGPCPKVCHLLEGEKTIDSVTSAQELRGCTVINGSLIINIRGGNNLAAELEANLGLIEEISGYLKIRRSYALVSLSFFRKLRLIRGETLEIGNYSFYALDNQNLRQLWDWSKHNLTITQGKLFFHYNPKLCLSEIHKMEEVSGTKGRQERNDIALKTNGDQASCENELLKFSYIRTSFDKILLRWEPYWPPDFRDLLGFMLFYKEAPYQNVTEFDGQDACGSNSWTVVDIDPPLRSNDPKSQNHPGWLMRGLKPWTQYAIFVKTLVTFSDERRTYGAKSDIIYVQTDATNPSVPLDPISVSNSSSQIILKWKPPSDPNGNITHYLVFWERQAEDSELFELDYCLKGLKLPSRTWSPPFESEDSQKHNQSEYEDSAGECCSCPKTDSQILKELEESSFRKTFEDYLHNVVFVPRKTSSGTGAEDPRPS
T1 sequence (P06213 763-1382 limits assumed): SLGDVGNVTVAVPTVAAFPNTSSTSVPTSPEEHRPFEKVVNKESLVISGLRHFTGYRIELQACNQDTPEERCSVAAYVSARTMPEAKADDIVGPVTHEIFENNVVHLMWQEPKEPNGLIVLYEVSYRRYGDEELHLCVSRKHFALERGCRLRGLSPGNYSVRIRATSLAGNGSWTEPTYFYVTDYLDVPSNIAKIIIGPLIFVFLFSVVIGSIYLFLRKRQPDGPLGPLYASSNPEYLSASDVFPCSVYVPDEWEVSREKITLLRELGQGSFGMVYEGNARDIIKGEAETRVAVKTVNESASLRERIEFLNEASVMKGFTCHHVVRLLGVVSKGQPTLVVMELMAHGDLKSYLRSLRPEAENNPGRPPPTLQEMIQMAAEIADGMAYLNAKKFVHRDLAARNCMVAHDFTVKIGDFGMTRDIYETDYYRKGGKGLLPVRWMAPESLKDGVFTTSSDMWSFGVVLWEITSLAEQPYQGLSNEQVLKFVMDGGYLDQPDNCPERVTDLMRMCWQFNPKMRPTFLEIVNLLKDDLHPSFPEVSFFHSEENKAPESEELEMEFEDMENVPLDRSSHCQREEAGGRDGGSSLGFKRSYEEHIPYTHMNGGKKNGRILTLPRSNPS

Mus musculus [3] = test: Inhibition of EGFR exon 19 deletion activating mutant phosphorylation in human PC9 cells xenografted in SCID mouse at 10 mg/kg, po measured 6 hrs post dose; type: functional; details: PC-9, 6 h
Mus musculus [4] = test: Inhibition of EGFR exon 19 deletion activating mutant phosphorylation in human PC9 cells xenografted in SCID mouse at 10 mg/kg, po measured 1 hr post dose; type: functional; details: PC-9, 1 h
A-431 = test: Antitumor activity against human A431 cells xenografted in SCID mouse assessed as tumor growth inhibition at 10 mg/kg/day, po qd for 7 days relative to control; type: functional; details: Mus musculus, A-431, 168 h, read-out: TGI
NCI-H1975 = test: Antitumor activity against human NCI-H1975 cells harboring EGFR L858R/[…] double mutant xenografted in SCID mouse assessed as tumor growth inhibition at 10 mg/kg/day, po qd for 7 days relative to control; type: functional; details: Mus musculus, NCI-H1975, 168 h, read-out: TGI
Mus musculus [5] = test: Inhibition of EGFR L858R/[…] double mutant phosphorylation in human NCI-H1975 cells xenografted in SCID mouse at 10 mg/kg, po measured 24 hrs post dose; type: functional; details: NCI-H1975, 24 h
Mus musculus [6] = test: Inhibition of EGFR L858R/[…] double mutant phosphorylation in human NCI-H1975 cells xenografted in SCID mouse at 10 mg/kg, po measured 30 hrs post dose; type: functional; details: NCI-H1975, 30 h
Mus musculus [7] = test: Inhibition of EGFR L858R/[…] double mutant phosphorylation in human NCI-H1975 cells xenografted in SCID mouse at 10 mg/kg, po measured 1 hr post dose; type: functional; details: NCI-H1975, 1 h
Mus musculus [8] = test: Inhibition of EGFR exon 19 deletion activating mutant phosphorylation in human PC9 cells xenografted in SCID mouse at 10 mg/kg, po measured 16 hrs post dose; type: functional; details: PC-9, 16 h
Insulin receptor [9] = molecular target: T1, Insulin receptor; test: Inhibition of INSR (unknown origin)
Mus musculus [10] = test: Inhibition of EGFR exon 19 deletion activating mutant phosphorylation in human PC9 cells xenografted in SCID mouse at 10 mg/kg, po measured 24 hrs post dose; type: functional; details: PC-9, 24 h
Mus musculus [11] = test: Inhibition of EGFR L858R/[…] double mutant phosphorylation in human NCI-H1975 cells xenografted in SCID mouse at 10 mg/kg, po measured 6 hrs post dose; type: functional; details: NCI-H1975, 6 h
[12] = Antitumor activity against human PC9 cells harboring EGFR exon 19 deletion activating mutant xenografted in SCID mouse assessed as tumor growth inhibition at 10 mg/kg/day, po qd for 7 days relative to control; type: functional, PC-9; details: Homo sapiens, PC-9, 168 h, read-out: TGI
[13] = molecular target: T2, Insulin-like growth factor 1 receptor (Homo sapiens, UniProt P08069); test: Inhibition of IGF1R (unknown origin)
T2 sequence (P08069 31-736 limits assumed): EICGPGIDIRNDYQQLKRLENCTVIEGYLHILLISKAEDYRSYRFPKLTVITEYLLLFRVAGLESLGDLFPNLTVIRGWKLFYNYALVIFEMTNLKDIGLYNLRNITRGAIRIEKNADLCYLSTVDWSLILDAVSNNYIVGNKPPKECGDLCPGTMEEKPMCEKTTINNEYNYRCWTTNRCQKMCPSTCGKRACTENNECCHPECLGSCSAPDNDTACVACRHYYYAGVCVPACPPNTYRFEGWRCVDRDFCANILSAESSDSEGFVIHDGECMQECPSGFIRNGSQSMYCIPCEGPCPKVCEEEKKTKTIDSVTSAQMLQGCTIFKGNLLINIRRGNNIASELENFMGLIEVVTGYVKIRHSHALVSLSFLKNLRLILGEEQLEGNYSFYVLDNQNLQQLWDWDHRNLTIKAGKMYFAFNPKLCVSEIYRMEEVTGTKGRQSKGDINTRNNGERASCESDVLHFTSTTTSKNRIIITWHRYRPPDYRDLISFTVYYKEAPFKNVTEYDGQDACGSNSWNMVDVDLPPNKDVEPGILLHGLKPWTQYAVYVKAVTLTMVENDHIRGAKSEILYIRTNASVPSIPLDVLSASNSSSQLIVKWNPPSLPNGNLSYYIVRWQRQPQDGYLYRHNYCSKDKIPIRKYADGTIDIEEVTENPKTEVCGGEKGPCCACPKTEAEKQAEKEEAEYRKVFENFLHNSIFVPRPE
T2 sequence (P08069 741-1367 limits assumed): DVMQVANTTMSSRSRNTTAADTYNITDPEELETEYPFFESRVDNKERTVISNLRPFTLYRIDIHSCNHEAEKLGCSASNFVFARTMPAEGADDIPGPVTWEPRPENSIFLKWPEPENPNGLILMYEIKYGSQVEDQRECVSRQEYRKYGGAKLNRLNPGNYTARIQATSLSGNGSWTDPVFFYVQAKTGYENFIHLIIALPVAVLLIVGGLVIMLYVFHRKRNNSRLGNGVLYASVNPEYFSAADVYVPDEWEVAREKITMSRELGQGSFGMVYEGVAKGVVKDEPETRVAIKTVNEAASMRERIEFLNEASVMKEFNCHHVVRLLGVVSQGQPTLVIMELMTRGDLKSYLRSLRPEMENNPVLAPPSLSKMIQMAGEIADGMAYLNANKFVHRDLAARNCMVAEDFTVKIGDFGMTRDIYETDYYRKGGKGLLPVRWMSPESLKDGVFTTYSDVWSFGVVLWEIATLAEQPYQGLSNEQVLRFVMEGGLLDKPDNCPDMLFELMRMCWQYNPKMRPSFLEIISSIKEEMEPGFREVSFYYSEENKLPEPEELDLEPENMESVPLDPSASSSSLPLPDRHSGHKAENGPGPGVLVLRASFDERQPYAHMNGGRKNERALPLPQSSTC

[14] = molecular target: T2, Insulin-like growth factor 1 receptor; test: Inhibition of IGF1R (unknown origin) at 1 uM relative to control
[15] = Lipophilicity, log D of the compound at pH 7.4; type: physicochemical; details: buffer
[16] = molecular target: Calcium/calmodulin-dependent protein kinase kinase 2 (Homo sapiens) (UniProt Q96RR4); test: Inhibition of CAMKKbeta (unknown origin) at 1 uM relative to control
Sequence of Calcium/calmodulin-dependent protein kinase kinase 2 (Homo sapiens) (Q96RR4 2-588 limits assumed): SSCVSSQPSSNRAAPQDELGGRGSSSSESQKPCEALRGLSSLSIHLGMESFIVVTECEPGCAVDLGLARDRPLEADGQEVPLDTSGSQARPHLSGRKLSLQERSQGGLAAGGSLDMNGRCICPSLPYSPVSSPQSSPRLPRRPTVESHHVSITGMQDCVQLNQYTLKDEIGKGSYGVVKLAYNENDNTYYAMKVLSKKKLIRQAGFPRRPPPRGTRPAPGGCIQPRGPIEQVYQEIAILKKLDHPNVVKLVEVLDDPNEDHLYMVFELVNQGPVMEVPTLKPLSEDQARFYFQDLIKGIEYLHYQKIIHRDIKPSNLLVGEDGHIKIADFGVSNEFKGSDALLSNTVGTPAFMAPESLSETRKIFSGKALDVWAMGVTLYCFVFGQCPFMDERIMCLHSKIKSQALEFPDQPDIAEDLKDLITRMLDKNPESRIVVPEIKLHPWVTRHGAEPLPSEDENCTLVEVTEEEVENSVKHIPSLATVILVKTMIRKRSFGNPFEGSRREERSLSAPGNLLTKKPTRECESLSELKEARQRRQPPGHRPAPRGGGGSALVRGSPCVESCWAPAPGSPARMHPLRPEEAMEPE

[17] = molecular target: Serine/threonine-protein kinase Chk2 (Homo sapiens) (UniProt O96017); test: Inhibition of CHK2 (unknown origin) at 1 uM relative to control
Sequence of Serine/threonine-protein kinase Chk2 (Homo sapiens) (O96017 whole entry): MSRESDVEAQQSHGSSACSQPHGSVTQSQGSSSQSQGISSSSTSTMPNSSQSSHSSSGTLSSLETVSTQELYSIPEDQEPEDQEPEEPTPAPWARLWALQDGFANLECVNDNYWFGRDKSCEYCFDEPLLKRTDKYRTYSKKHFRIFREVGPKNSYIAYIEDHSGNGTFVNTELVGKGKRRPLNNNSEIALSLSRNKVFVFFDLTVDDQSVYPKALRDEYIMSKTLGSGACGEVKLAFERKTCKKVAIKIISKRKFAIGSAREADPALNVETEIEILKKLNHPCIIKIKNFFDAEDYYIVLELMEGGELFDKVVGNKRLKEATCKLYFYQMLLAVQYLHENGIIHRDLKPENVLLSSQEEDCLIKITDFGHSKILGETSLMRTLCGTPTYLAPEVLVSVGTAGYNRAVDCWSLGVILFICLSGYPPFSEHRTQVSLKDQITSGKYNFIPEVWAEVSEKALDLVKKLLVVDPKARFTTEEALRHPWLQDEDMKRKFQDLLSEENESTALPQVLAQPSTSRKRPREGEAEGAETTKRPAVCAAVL

inhibition (Insulin receptor [2]): 98%
pIC50 (Insulin receptor [9]): 7.46
pIC50 [13]: 7.59
inhibition [14]: 97%
Compound: C=CC(=O)Nc1cc(Nc2ncc(Cl)c(-c3cnn4ccccc34)n2)c(OC)cc1N1CC(N(C)C)C1
inhibition in vivo at 10 mg/kg (Mus musculus [1]): 82%
inhibition in vivo at 10 mg/kg (Mus musculus [3]): 85%
inhibition in vivo at 10 mg/kg (Mus musculus [4]): 57%
inhibition in vivo at 10 mg/kg/day (A-431): 16%
inhibition in vivo at 10 mg/kg/day (NCI-H1975): 113%
inhibition in vivo at 10 mg/kg (Mus musculus [5]): 79%
inhibition in vivo at 10 mg/kg (Mus musculus [6]): 50%
inhibition in vivo at 10 mg/kg (Mus musculus [7]): 37%
inhibition in vivo at 10 mg/kg (Mus musculus [8]): 52%
inhibition in vivo at 10 mg/kg (Mus musculus [10]): 19%
inhibition in vivo at 10 mg/kg (Mus musculus [11]): 99%
inhibition in vivo at 10 mg/kg/day [12]: 169%

logD [15]: 2
Compound: C=CC(=O)Nc1cc(Nc2ncc(Cl)c(-c3cnn4ccccc34)n2)c(OC)cc1N1CCN(C(=O)N2CCNCC2)CC1

logD [15]: 2.2
Compound: C=CC(=O)Nc1cc(Nc2ncc(Cl)c(-c3cnn4ccccc34)n2)c(OC)cc1N1CCN(C(=O)[C@@H]2CCCCN2)CC1

inhibition [16]: 92%
pIC50 [13]: 8.70
inhibition [14]: 97%
Compound: C=CC(=O)Nc1cc(Nc2ncc(Cl)c(-c3cnn4ccccc34)n2)c(OC)cc1N1CCN(C)CC1

inhibition [17]: 90%
inhibition (Insulin receptor [2]): 97%
inhibition [16]: 94%
pIC50 [13]: 8.40
inhibition [14]: 98%
Compound: COc1ccc(NC(=O)/C=C/CN(C)C)cc1Nc1ncc(Cl)c(-c2cnn3ccccc23)n1

logD [15]: 2.6
Compound: C=CC(=O)Nc1cc(Nc2ncc(Cl)c(-c3cnn4ccccc34)n2)c(OC)cc1N1CCN(C(=O)CN(C)C)CC1

logD [15]: 2.1
Compound: C=CC(=O)Nc1cc(Nc2ncc(Cl)c(-c3cnn4ccccc34)n2)c(OC)cc1N1CCN(C(=O)[C@@H](C)N)CC1

inhibition (Insulin receptor [2]): 98%
pIC50 (Insulin receptor [9]): 7.68
pIC50 [13]: 8.15
inhibition [14]: 98%
Compound: C=CC(=O)Nc1cc(Nc2ncc(Cl)c(-c3cnn4ccccc34)n2)c(OC)cc1N1CC[C@@H](N(C)C)C1
inhibition in vivo at 10 mg/kg (Mus musculus [3]): 76%
inhibition in vivo at 10 mg/kg/day (A-431): 27%
inhibition in vivo at 10 mg/kg (Mus musculus [5]): 88%
inhibition in vivo at 10 mg/kg (Mus musculus [10]): 68%
inhibition in vivo at 10 mg/kg (Mus musculus [11]): 94%
inhibition in vivo at 10 mg/kg/day [12]: 227%

logD [15]: 2.2
Compound: C=CC(=O)Nc1cc(Nc2ncc(Cl)c(-c3cnn4ccccc34)n2)c(OC)cc1N1CCN(C(=O)[C@H]2CCCCN2)CC1
